In ChEMBL document CHEMBL1201862, “PubChem BioAssay data set” (2004):
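Interpolation was linear, between the two tested concentrations surrounding the appropriate level; five concentrations were tested over 48 hours in 96-well plates. Abbreviation: GI50, concentration required for 50% inhibition of growth.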 Active and inactive are the calls of the source. Cut-off read from the data, not from the text of the source: active = GI50 up to about 1.1 µM and inactive = higher.

What was measured:
Assay in all cases: growth of human tumour cells (NCI), 48 h
786-0 = test system: 786-0
A498 = test system: A498
CAKI-1 = test system: CAKI-1
DU-145 = test system: DU-145
EKVX = test system: EKVX
HCT-15 = test system: HCT-15
HT-29 = test system: HT-29
Hs-578T = test system: Hs-578T
KM12 = test system: KM12
M14 = test system: M14
MCF7 = test system: MCF7
MDA-MB-231 = test system: MDA-MB-231
NCI-H226 = test system: NCI-H226
OVCAR-4 = test system: OVCAR-4
RXF 393 = test system: RXF 393
SK-MEL-28 = test system: SK-MEL-28
SNB-75 = test system: SNB-75
SR = test system: SR
U-251 = test system: U-251
UO-31 = test system: UO-31

| SMILES | GI50 (786-0) | GI50 (A498) | GI50 (CAKI-1) | GI50 (DU-145) | GI50 (EKVX) | GI50 (HCT-15) [µM] | GI50 (HT-29) | GI50 (Hs-578T) | GI50 (KM12) | GI50 (M14) | GI50 (MCF7) | GI50 (MDA-MB-231) | GI50 (NCI-H226) | GI50 (OVCAR-4) | GI50 (RXF 393) | GI50 (SK-MEL-28) | GI50 (SNB-75) | GI50 (SR) | GI50 (U-251) | GI50 (UO-31) |
| --- | --- | --- | --- | --- | --- | --- | --- | --- | --- | --- | --- | --- | --- | --- | --- | --- | --- | --- | --- | --- |
| CO[C@@]12[C@H](COC(N)=O)C3=C(C(=O)C(C)=C(N)C3=O)N1C[C@H]1[C@@H]2N1C (stereo not given in full) [PORFIROMYCIN] | 8.57 µM (inactive) | 6.31 µM (inactive) | 0.948 µM (active) | 0.282 µM (active) | 12.3 µM (inactive) | 2.57 | 1.42 µM (inactive) | 16.6 µM (inactive) | 6.97 µM (inactive) | 0.65 µM (active) | 0.714 µM (active) | 9.73 µM (inactive) | 8.69 µM (inactive) | 9.68 µM (inactive) | 6.31 µM (inactive) | 12.3 µM (inactive) | 1.1 µM (active) | 0.409 µM (active) | 1.19 µM (inactive) | 13.9 µM (inactive) |
| Cc1ccc2c(c1)C(=O)c1nc(C)ccc1C2=O | 43.8 µM (inactive) | 59.3 µM (inactive) | 24.8 µM (inactive) | 32.3 µM (inactive) | 29.4 µM (inactive) | 22.6 | 17 µM (inactive) | > 100 µM (inactive) | 23.3 µM (inactive) | 32.7 µM (inactive) | 25.6 µM (inactive) | 13.9 µM (inactive) | 43.5 µM (inactive) | 28.2 µM (inactive) | 66.7 µM (inactive) | 50.7 µM (inactive) | 29.8 µM (inactive) | 47.1 µM (inactive) | 35.5 µM (inactive) | 26.4 µM (inactive) |
| N=C(N)N/N=C\c1ccc(C2CCNCC2)cc1 | > 100 µM (inactive) | > 100 µM (inactive) | > 100 µM (inactive) | > 100 µM (inactive) | > 100 µM (inactive) | > 100 | > 100 µM (inactive) | > 100 µM (inactive) | > 100 µM (inactive) | > 100 µM (inactive) | > 100 µM (inactive) | > 100 µM (inactive) | > 100 µM (inactive) | > 100 µM (inactive) | > 100 µM (inactive) | > 100 µM (inactive) | > 100 µM (inactive) | > 100 µM (inactive) | > 100 µM (inactive) | > 100 µM (inactive) |
| CO/N=C\c1ccc2c(c1)Sc1ccccc1O2 | 69.5 µM (inactive) | > 100 µM (inactive) | > 100 µM (inactive) | > 100 µM (inactive) | 30.2 µM (inactive) | 28.5 | 33.1 µM (inactive) | 30.9 µM (inactive) | 42.3 µM (inactive) | 30.5 µM (inactive) | 34.7 µM (inactive) | > 100 µM (inactive) | > 100 µM (inactive) | 43.9 µM (inactive) | 27.5 µM (inactive) | > 100 µM (inactive) | 52.5 µM (inactive) | 23.4 µM (inactive) | 54.5 µM (inactive) | 58.3 µM (inactive) |
| O=c1[nH]nc(Cc2ccccc2)n1C1CCCC1 | > 100 µM (inactive) | > 100 µM (inactive) | > 100 µM (inactive) | > 100 µM (inactive) | > 100 µM (inactive) | > 100 | > 100 µM (inactive) | > 100 µM (inactive) | > 100 µM (inactive) | > 100 µM (inactive) | > 100 µM (inactive) | > 100 µM (inactive) | > 100 µM (inactive) | > 100 µM (inactive) | > 100 µM (inactive) | > 100 µM (inactive) | > 100 µM (inactive) | > 100 µM (inactive) | > 100 µM (inactive) | > 100 µM (inactive) |
| CN(C)c1n/c(=N/Cc2cccs2)ss1 | 9.98 µM (inactive) | > 10 µM (inactive) | > 10 µM (inactive) | > 10 µM (inactive) | > 10 µM (inactive) | > 10 | > 10 µM (inactive) | > 10 µM (inactive) | > 10 µM (inactive) | > 10 µM (inactive) | > 10 µM (inactive) | > 10 µM (inactive) | > 10 µM (inactive) | > 10 µM (inactive) | > 10 µM (inactive) | > 10 µM (inactive) | > 10 µM (inactive) | 0.573 µM (active) | > 10 µM (inactive) | > 10 µM (inactive) |
| CCOc1ccc(NCC2CC/C(=C\C=C\c3ccccc3)C2=O)cc1 (stereo not given) | 5.25 µM (inactive) | 28.6 µM (inactive) | 12.7 µM (inactive) | 33.2 µM (inactive) | 37.3 µM (inactive) | 5.41 | 13.5 µM (inactive) | 29 µM (inactive) | 6.07 µM (inactive) | 13.7 µM (inactive) | 3.18 µM (inactive) | 9.14 µM (inactive) | 44.7 µM (inactive) | 27.5 µM (inactive) | 16.1 µM (inactive) | 16.4 µM (inactive) | 23.2 µM (inactive) | 4 µM (inactive) | 18.8 µM (inactive) | 26.6 µM (inactive) |
| c1cc(C2N3CCCN2CC3)ccn1 (stereo not given) | 56.2 µM (inactive) | > 100 µM (inactive) | > 100 µM (inactive) | > 100 µM (inactive) | > 100 µM (inactive) | > 100 | > 100 µM (inactive) | 22.8 µM (inactive) | > 100 µM (inactive) | 61.1 µM (inactive) | 37.8 µM (inactive) | > 100 µM (inactive) | > 100 µM (inactive) | 86.7 µM (inactive) | > 100 µM (inactive) | > 100 µM (inactive) | > 100 µM (inactive) | 49.9 µM (inactive) | 58.3 µM (inactive) | > 100 µM (inactive) |
| O=C(CSCC(=O)N/N=C/c1cc(I)cc(I)c1O)N/N=C/c1cc(I)cc(I)c1O | 5.83 µM (inactive) | 9.04 µM (inactive) | 18.3 µM (inactive) | 17.7 µM (inactive) | 16 µM (inactive) | 17.9 | 32.9 µM (inactive) | 6.78 µM (inactive) | 25.8 µM (inactive) | 17.8 µM (inactive) | 15.1 µM (inactive) | 7.18 µM (inactive) | 7.91 µM (inactive) | 47 µM (inactive) | 10.6 µM (inactive) | 18.9 µM (inactive) | 5.65 µM (inactive) | 3.54 µM (inactive) | 6.61 µM (inactive) | 13.2 µM (inactive) |
| c1ccc2sc(C3(N4CCCCC4)CCCCCC3)cc2c1 | 20.9 µM (inactive) | 15.2 µM (inactive) | 26.7 µM (inactive) | 31.1 µM (inactive) | 22.9 µM (inactive) | 17.3 | 14.8 µM (inactive) | 18.9 µM (inactive) | 17.1 µM (inactive) | 27 µM (inactive) | 17.8 µM (inactive) | 23 µM (inactive) | 17.3 µM (inactive) | 25.8 µM (inactive) | 14.5 µM (inactive) | 4.62 µM (inactive) | 15.2 µM (inactive) | 19.1 µM (inactive) | 17.3 µM (inactive) | 25.1 µM (inactive) |
| COc1cc(C[C@H]2c3cc(OC)c(OC)cc3CCN2C)c(Oc2cc3c(cc2OC)-c2c(OC)c(OC)cc4c2[C@H](C3)N(C)CC4)cc1OC [THALICARPINE] | 3.52 µM (inactive) | 7.06 µM (inactive) | 6.22 µM (inactive) | 14 µM (inactive) | 12.9 µM (inactive) | 5.04 | 5.66 µM (inactive) | 2.99 µM (inactive) | 5.18 µM (inactive) | 1.52 µM (inactive) | 12.2 µM (inactive) | 4.13 µM (inactive) | 6.58 µM (inactive) | 8.3 µM (inactive) | 3.05 µM (inactive) | 4.02 µM (inactive) | 7.03 µM (inactive) | 5.08 µM (inactive) | 3.9 µM (inactive) | 4.66 µM (inactive) |
| CCCCc1ccc(Nc2nc(Cl)c3ccn(C4CC(Oc5ccc(C)cc5)C(COc5ccc(C)cc5)O4)c3n2)cc1 (stereo not given) | > 46.5 µM (inactive) | > 46.5 µM (inactive) | > 46.5 µM (inactive) | > 46.5 µM (inactive) | 28.6 µM (inactive) | > 46.5 | > 46.5 µM (inactive) | > 100 µM (inactive) | > 46.5 µM (inactive) | > 46.5 µM (inactive) | > 46.5 µM (inactive) | > 46.5 µM (inactive) | > 46.5 µM (inactive) | > 31.6 µM (inactive) | > 46.5 µM (inactive) | > 100 µM (inactive) | > 83.2 µM (inactive) | > 10 µM (inactive) | > 46.5 µM (inactive) | 25.6 µM (inactive) |
| O=C1/C(=C/c2ccccc2)N=C2Sc3c([nH]cnc3=O)N12 | > 100 µM (inactive) | > 100 µM (inactive) | > 100 µM (inactive) | > 100 µM (inactive) | > 100 µM (inactive) | 68.9 | > 100 µM (inactive) | 73.1 µM (inactive) | > 100 µM (inactive) | > 100 µM (inactive) | > 100 µM (inactive) | > 100 µM (inactive) | 78.2 µM (inactive) | 35.1 µM (inactive) | > 100 µM (inactive) | > 100 µM (inactive) | > 100 µM (inactive) | 25.1 µM (inactive) | > 100 µM (inactive) | > 100 µM (inactive) |
| CCN1CCC(CNC(=O)c2ccc(N)cc2)N1CC (stereo not given) | > 100 µM (inactive) | > 100 µM (inactive) | > 100 µM (inactive) | > 100 µM (inactive) | > 100 µM (inactive) | > 100 | > 100 µM (inactive) | > 100 µM (inactive) | > 100 µM (inactive) | > 100 µM (inactive) | > 100 µM (inactive) | > 100 µM (inactive) | > 100 µM (inactive) | > 100 µM (inactive) | > 100 µM (inactive) | > 100 µM (inactive) | > 100 µM (inactive) | > 100 µM (inactive) | > 100 µM (inactive) | > 100 µM (inactive) |
